In general, IC50 refers to the point on the concentration scale where inhibition reaches its midpoint.

SMILES strings stand for the structures.

The assay addresses T1, human GPR91 receptor (Homo sapiens, UniProt Q9BXA5).
T1 construct: expressed in transfected cells; host or cells: CHO-K1 NFAT cells
T1 sequence (Q9BXA5 1-334): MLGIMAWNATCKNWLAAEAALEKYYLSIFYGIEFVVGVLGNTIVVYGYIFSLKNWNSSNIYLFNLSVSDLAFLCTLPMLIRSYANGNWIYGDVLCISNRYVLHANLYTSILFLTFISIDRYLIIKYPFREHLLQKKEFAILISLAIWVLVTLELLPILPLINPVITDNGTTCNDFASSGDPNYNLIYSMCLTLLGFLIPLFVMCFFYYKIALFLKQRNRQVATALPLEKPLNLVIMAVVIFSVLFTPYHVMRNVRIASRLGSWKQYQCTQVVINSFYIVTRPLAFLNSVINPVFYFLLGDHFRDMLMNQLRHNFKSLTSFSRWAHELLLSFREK
Kind of assay: Human GPR91 calcium mobilization assay. In kind it is cell-based. The conditions noted are these: CHO-K1 NFAT cells over expressing human GPR91 receptor; Fluo4 AM; agonist sodium succinate; flex station; read-out: hGPR91 IC50 (μM)*. As to the method: Human GPR91 Calcium Mobilization Assay
To determine IC50 in CHO NFAT cells over expressing human GPR91 receptor calcium mobilization assay in flex station mode was carried out.
Grow CHO-K1 NFAT cells over expressing human GPR91 receptors in alpha MEM media were supplemented with 10% FBS (heat inactivated), 0.5 mg/ml of G-418, 0.5 mg/ml of Zeocin and 0.6 mg/ml of Hygromycin B.
The cells were seeded at least 21 hours before the experiment at the density of 25000/well in 96 well plate (Corning cat #no. 3603). It was made sure that cells were at least 95% confluent on the day of assay. No antibiotics were used for seeding purpose.
On the day of assay the media was discarded from plates and plates were washed with 100 μl of HBSS assay buffer. The plates were loaded with Fluo4 AM at 2 μM concentration. Pluronic F-127 dye was solubilized in calcium assay buffer containing 0.1% BSA, i.e., 20 μl dye+20 μl Pluronic F127 for 10 ml. Appropriate amounts of 100× probenecid was added to the loading mixture 1× final (100 μl per 10 ml). Total volume of dye loaded was made 100 μl. The plate was then wrapped in aluminium foil to protect from light and were incubated for 90 mins at 37 degrees in cell culture incubator. At the end of incubation the plates was washed again with 100 μl of HBSS buffer without BSA and 75 μl of HBSS buffer was added (without BSA) to the plate.
Further, 8 point-Dose response curve of the compounds of the present disclosure was prepared in 100% DMSO followed by 57.14-fold dilution to 1.75× in 1.75% DMSO in assay buffer. 100 μL of 1.75×NCE was added to the wells as shown below and incubated at room temp on orbital shaker at 300 rpm for 15 min. Flexstation [excitation @ 485 nm and emission @ 525 nm] for a total time of 60 seconds. 25 μL of 8× agonist (800 μM sodium succinate) was added to each well using the flexstation after establishing the baseline for 20 sec, Measurement—Max-Min over 60 sec. Using the above protocol results obtained are tabulate din the Table 1 below: […]
A general note: A change in cytosolic calcium serves as a functional read-out for many receptors and channels.
In the case of `O=C(O)Cc1cccc(Oc2ccc(Oc3cccc4ccncc34)cc2C(F)(F)F)c1` [Compound A-1, 2-[3-[4-(8-isoquinolyloxy)-2-(trifluoromethyl)phenoxy]phenyl]acetic acid], the IC50 was under 5 µM.
Under `O=C(O)Cc1cccc(Oc2ccc(Oc3cccc4cnncc34)cc2C(F)(F)F)c1` [Compound A-2, 2-[3-[4-phthalazin-5-yloxy-2-(trifluoromethyl)phenoxy]phenyl]acetic acid] stands under 5 µM; under `O=C(O)CCc1cccc(Oc2ccc(Oc3cccc4cnncc34)cc2C(F)(F)F)c1` [Compound A-3, 3-[3-[4-phthalazin-5-yloxy-2-(trifluoromethyl)phenoxy]phenyl]propanoic acid], under 5 µM.
Under `O=C(O)Cc1cccc(Oc2ccc(Oc3ccc(Cl)c4cnncc34)cc2C(F)(F)F)c1` [Compound A-4, 2-[3-[4-(8-chlorophthalazin-5-yl)oxy-2-(trifluoromethyl)phenoxy]phenyl]acetic acid] stands under 5 µM.
On to `Cn1ncc2cccc(Oc3ccc(Oc4cccc(CC(=O)O)c4)c(C(F)(F)F)c3)c21` [Compound A-5, 2-[3-[4-(1-methylindazol-7-yl)oxy-2-(trifluoromethyl)phenoxy]phenyl]acetic acid], for which the IC50 was under 5 µM.
Under `O=C(O)Cc1cccc(Oc2ccc(Oc3ccc4ncccc4c3)cc2C(F)(F)F)c1` [Compound A-6, 2-[3-[4-(6-quinolyloxy)-2-(trifluoromethyl)phenoxy]phenyl]acetic acid] stands 5 to 10 µM; under `O=C(O)CCc1cccc(Oc2ccc(Oc3cccn4ccnc34)cc2C(F)(F)F)c1` [Compound A-7, 3-[3-[4-imidazo[1,2-a]pyridin-8-yloxy-2-(trifluoromethyl)phenoxy]phenyl]propanoic acid], over 10 µM; under `O=C(O)Cc1cccc(Oc2ccc(Oc3ccc(F)c4ccncc34)cc2C(F)(F)F)c1` [Compound A-8, 2-[3-[4-[(5-fluoro-8-isoquinolyl)oxy]-2-(trifluoromethyl)phenoxy]phenyl]acetic acid], under 5 µM.
In the case of `O=C(O)Cc1cccc(Oc2ccc(Oc3cccc4ncncc34)cc2C(F)(F)F)c1` [Compound A-9, 2-[3-[4-quinazolin-5-yloxy-2-(trifluoromethyl)phenoxy]phenyl]acetic acid], the IC50 was under 5 µM.
To `CN1CCc2cccc(Oc3ccc(Oc4cccc(CCC(=O)O)c4)c(C(F)(F)F)c3)c2C1` [Compound A-10, 3-[3-[4-[(2-methyl-3,4-dihydro-1H-isoquinolin-8-yl)oxy]-2-(trifluoromethyl)phenoxy]phenyl]propanoic acid] belongs over 10 µM; to `O=C(O)CCc1cccc(Oc2ccc(Oc3cccc4c3OCCO4)cc2C(F)(F)F)c1` [Compound A-11, 3-[3-[4-(2,3-dihydro-1,4-benzodioxin-5-yloxy)-2-(trifluoromethyl)phenoxy]phenyl]propanoic acid], over 10 µM; to `O=C(O)CCc1cccc(Oc2ccc(Oc3cccc4cccnc34)cc2C(F)(F)F)c1` [Compound A-12, 3-[3-[4-(8-quinolyloxy)-2-(trifluoromethyl)phenoxy]phenyl]propanoic acid], over 10 µM.
To `O=C(O)CCc1cccc(Oc2ccc(Oc3ccnc4ccccc34)cc2C(F)(F)F)c1` [Compound A-13, 3-[3-[4-(4-quinolyloxy)-2-(trifluoromethyl)phenoxy]phenyl]propanoic acid] belongs over 10 µM; to `O=C(O)CCc1cccc(Oc2ccc(Oc3cccc4cnccc34)cc2C(F)(F)F)c1` [Compound A-14, 3-[3-[4-(5-isoquinolyloxy)-2-(trifluoromethyl)phenoxy]phenyl]propanoic acid], under 5 µM; to `Cn1cc2c(Oc3ccc(Oc4cccc(CC(=O)O)c4)c(C(F)(F)F)c3)cccc2n1` [Compound A-15, 2-[3-[4-(2-methylindazol-4-yl)oxy-2-(trifluoromethyl)phenoxy]phenyl]acetic acid], under 5 µM.

Values taken from US11098026B2, “Fused bicyclic compounds, compositions and applications thereof” (IMPETIS BIOSCIENCES LIMITED, priority 2017, dated 2021).
